Test results taken from BigSolDB 2.1.

Brc1cn[nH]c1
solubility (mole fraction) (in ethanol, 283.15 K): 0.265
solubility (mole fraction) (in ethanol, 285.65 K): 0.275
solubility (mole fraction) (in ethanol, 288.15 K): 0.287
solubility (mole fraction) (in ethanol, 290.65 K): 0.299
solubility (mole fraction) (in ethanol, 293.15 K): 0.311
solubility (mole fraction) (in ethanol, 295.65 K): 0.325
solubility (mole fraction) (in ethanol, 298.15 K): 0.339
solubility (mole fraction) (in ethanol, 300.65 K): 0.354
solubility (mole fraction) (in ethanol, 303.15 K): 0.372
solubility (mole fraction) (in ethanol, 305.65 K): 0.39
solubility (mole fraction) (in ethanol, 308.15 K): 0.409
solubility (mole fraction) (in ethanol, 310.65 K): 0.431
solubility (mole fraction) (in ethanol, 313.15 K): 0.457
solubility (mole fraction) (in ethanol, 315.65 K): 0.481
solubility (mole fraction) (in ethanol, 318.15 K): 0.506
solubility (mole fraction) (in methanol, 283.15 K): 0.203
solubility (mole fraction) (in methanol, 285.65 K): 0.218
solubility (mole fraction) (in methanol, 288.15 K): 0.234
solubility (mole fraction) (in methanol, 290.65 K): 0.252
solubility (mole fraction) (in methanol, 293.15 K): 0.27
solubility (mole fraction) (in methanol, 295.65 K): 0.292
solubility (mole fraction) (in methanol, 298.15 K): 0.312
solubility (mole fraction) (in methanol, 300.65 K): 0.333
solubility (mole fraction) (in methanol, 303.15 K): 0.355
solubility (mole fraction) (in methanol, 305.65 K): 0.379
solubility (mole fraction) (in methanol, 308.15 K): 0.402
solubility (mole fraction) (in methanol, 310.65 K): 0.426
solubility (mole fraction) (in methanol, 313.15 K): 0.452
solubility (mole fraction) (in methanol, 315.65 K): 0.479
solubility (mole fraction) (in methanol, 318.15 K): 0.503
solubility (mole fraction) (in water, 283.15 K): 0.0048
solubility (mole fraction) (in water, 285.65 K): 0.00501
solubility (mole fraction) (in water, 288.15 K): 0.00532
solubility (mole fraction) (in water, 290.65 K): 0.00562
solubility (mole fraction) (in water, 293.15 K): 0.00591
solubility (mole fraction) (in water, 295.65 K): 0.00623
solubility (mole fraction) (in water, 298.15 K): 0.0066
solubility (mole fraction) (in water, 300.65 K): 0.00696
solubility (mole fraction) (in water, 303.15 K): 0.00733
solubility (mole fraction) (in water, 305.65 K): 0.00772
solubility (mole fraction) (in water, 308.15 K): 0.00809
solubility (mole fraction) (in water, 310.65 K): 0.00848
solubility (mole fraction) (in water, 313.15 K): 0.00895
solubility (mole fraction) (in water, 315.65 K): 0.00941
solubility (mole fraction) (in water, 318.15 K): 0.00987
